Converted amounts (≈) assume the structure as drawn.
Columns and labels:
MRSA 252 [1] = assay: Disc diffusion (Kirby-Bauer), zone of inhibition; assay type: cell-based, Staphylococcus aureus; conditions: Staphylococcus aureus, 500 μg/mL, '/' = no zone, read-out: Zone of inhibition
How it was run: (§1)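 Zones of inhibition recorded after 24 h at 37 °C on Mueller-Hinton agar. Agar was inoculated with 1 in 200 diluted 18 h broth cultures, and discs carried 50 μL of antibiotic. Method follows CLSI 2017 disc diffusion.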

MSSA 476 [2] = assay: Disc diffusion (Kirby-Bauer), zone of inhibition; assay type: cell-based, Staphylococcus aureus; conditions: Staphylococcus aureus, 500 μg/mL, '/' = no zone, read-out: Zone of inhibition
How it was run: as §1

MRSA 252 [3] = assay: MIC, broth micro-dilution; assay type: cell-based, Staphylococcus aureus; conditions: Staphylococcus aureus, read-out: MIC
How it was run: (§2)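 S. aureus cultures grown 18 h in TSB were used to inoculate twofold antibiotic series in TSB at 5×10^5 CFU/mL, per CLSI guidelines. Growth curves read by optical density at 12-min intervals for 18 h at 37 °C were fitted sigmoidally to calculate MIC.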

MSSA 476 [4] = assay: MIC, broth micro-dilution; assay type: cell-based, Staphylococcus aureus; conditions: Staphylococcus aureus, MSSA, read-out: MIC
How it was run: as §2

HEK293 cells = assay: Cytotoxicity assay, resazurin (CO-ADD)
Method: The cytotoxicity studies were performed by CO-ADD (The Community for Open Antimicrobial Drug Discovery), funded by the Wellcome trust (UK) and the University of Queensland, Australia.^(28) In this study, the compounds were screened against a human embryonic kidney cell line, HEK293, at a set concentration of 32 μg/mL.
DMEM supplemented with 10% FBS was used as growth media and the cells were incubated together with the compounds for 20 hours at 37° C. in 5% CO2.
Cytotoxicity (or cell viability) was measured by fluorescence, excitation: 560/10 nm, emission: 590/10 nm (F560/590), after addition of 5 μL of 25 μg/mL Resazurin (2.3 μg/mL final concentration) and after incubation for further 3 h at 37° C. in 5% CO2. The fluorescence intensity was measured using a Tecan M1000 Pro monochromator plate reader, using automatic gain calculation CC50 (concentration at 50% cytotoxicity) were calculated by curve fitting the inhibition values vs. log(concentration) using sigmoidal dose-response function, with variable fitting values for bottom, top and slope. The curve fitting was implemented using Pipeline Pilot's dose-response component.

red blood cells = assay: Hemolysis assay (CO-ADD); assay type: cell-based; conditions: 32 μg/mL highest concentration tested
Source text: A problem often encountered by emerging drugs is hemolysis, also known as drug-induced immune hemolytic anemia.

[5] = test system: Staphylococcus aureus 15981; assay: Disc diffusion (Kirby-Bauer), zone of inhibition; assay type: cell-based; conditions: Staphylococcus aureus 15981; 500 μg/mL; '/' = no zone; read-out: Zone of inhibition
How it was run: as §1

[6] = test system: various Staphylococcus aureus strains; assay: Disc diffusion, Staphylococcus aureus strain study; assay type: cell-based; conditions: Staphylococcus aureus, 500 μg/mL
Source text: At this point in the study it was decided to perform a disc diffusion assay study on 50 S. aureus strains. […] Moreover, by employing a range of mutant strains of S. aureus with specific gene-deletions, it was believed that if particular strains were resistant to the lead compounds, it could provide insights on the likely protein target of the lead antibiotics. However, all six of the compounds utilized in this study were able to inhibit growth of all 50 strains of S. aureus assayed at the chosen concentration of 500 μg/mL concentration (Table 5).
E. coli DH5α, P. aeruginosa PA01 and the 53 S. aureus strains were recovered from frozen (−80° C.) glycerol (15% v/v) stocks on Lysogeny agar (LA)—Gram negative and trypticase soy agar (TSA)—plates at 37° C. for 24 hours. Single colonies were placed in either 3 mL Lysogeny broth (LB)—Gram negative or trypticase soy broth (TSB)—Gram positive and incubated at 37° C., 250 rpm for 18 hours.
The antibiotic activity was determined using a Kirby-Bauer method according to Clinical Standard Laboratory Institute (CSLI) Guidelines (2017). Briefly, 180 μL of a 1 in 200 dilution (in LB or TSB) of overnight cultures of selected Gram negative and Gram positive bacteria were applied to an agar plate containing the solid growth medium, Mueller-Hinton agar (MHA). Sterile discs, inoculated with 50 μL of antibiotic, were first added to the agar plate before the plates were incubated for 24 hours at 37° C. Following incubation, the zone of inhibition (if it existed) was recorded.

## [C-]#[N+]/C=C/c1ccc(O)cc1/C=C/c1ccccc1 [Compound 36, 4-((E Z)-2-Isocyanovinyl)-3-((E)-styryl)phenol]
MRSA 252 [1]
  zone of inhibition at 500 µg/mL: 28 mm
MSSA 476 [2]
  zone of inhibition at 500 µg/mL: 30 mm
MRSA 252 [3]
  MIC: 15 µg/mL (≈ 60.7 µM)
MSSA 476 [4]
  MIC: 12 µg/mL (≈ 48.5 µM)
HEK293 cells; HEK 293
  Concentration toxic to HEK 293 cells: >32000 ng/mL
HEK293 cells; set concentration of 32 μg/mL
  toxicity towards the HEK293 cell line (in words): no toxicity
Red blood cells
  Hemolytic activity (HC10): >32 µg/mL
[5]
  zone of inhibition at 500 µg/mL: 30 mm
[6]; strain ASARM 61
  zone of inhibition at 500 µg/mL: 29 mm
[6]; strain ASARM 70
  zone of inhibition at 500 µg/mL: 28 mm
[6]; strain ASARM 71
  zone of inhibition at 500 µg/mL: 26 mm
[6]; strain ASARM 72
  zone of inhibition at 500 µg/mL: 26 mm
[6]; strain ASARM 73
  zone of inhibition at 500 µg/mL: 29 mm
[6]; strain ASARM 75
  zone of inhibition at 500 µg/mL: 32 mm
[6]; strain ASARM 76
  zone of inhibition at 500 µg/mL: 34 mm
[6]; strain ASARM 77
  zone of inhibition at 500 µg/mL: 34 mm
[6]; strain ASARM 79
  zone of inhibition at 500 µg/mL: 29 mm
[6]; strain ASARM 80
  zone of inhibition at 500 µg/mL: 30 mm
[6]; strain EOE 3
  zone of inhibition at 500 µg/mL: 30 mm
[6]; strain EOE 23
  zone of inhibition at 500 µg/mL: 32 mm
[6]; strain EOE 30
  zone of inhibition at 500 µg/mL: 34 mm
[6]; strain EOE 35
  zone of inhibition at 500 µg/mL: 32 mm
[6]; strain EOE 41
  zone of inhibition at 500 µg/mL: 28 mm
[6]; strain EOE 42
  zone of inhibition at 500 µg/mL: 26 mm
[6]; strain EOE 45
  zone of inhibition at 500 µg/mL: 28 mm
[6]; strain EOE 52
  zone of inhibition at 500 µg/mL: 28 mm
[6]; strain EOE 54
  zone of inhibition at 500 µg/mL: 29 mm
[6]; strain EOE 57
  zone of inhibition at 500 µg/mL: 28 mm
[6]; strain S139_7_7
  zone of inhibition at 500 µg/mL: 24 mm
[6]; strain S197_1_1
  zone of inhibition at 500 µg/mL: 29 mm
[6]; strain S197_1_8
  zone of inhibition at 500 µg/mL: 28 mm
[6]; strain S197_1_9
  zone of inhibition at 500 µg/mL: 28 mm
[6]; strain S197_1_10
  zone of inhibition at 500 µg/mL: 28 mm
[6]; strain S295_1_1
  zone of inhibition at 500 µg/mL: 30 mm
[6]; strain S295_1_2
  zone of inhibition at 500 µg/mL: 30 mm
[6]; strain S295_1_3
  zone of inhibition at 500 µg/mL: 32 mm
[6]; strain S364_5_11
  zone of inhibition at 500 µg/mL: 30 mm
[6]; strain S364_5_12
  zone of inhibition at 500 µg/mL: 28 mm
[6]; strain Sa_TPS 3026
  zone of inhibition at 500 µg/mL: 29 mm
[6]; strain Sa_TPS 3072
  zone of inhibition at 500 µg/mL: 28 mm
[6]; strain Sa_TPS 3092
  zone of inhibition at 500 µg/mL: 29 mm
[6]; strain Sa_TPS 3097
  zone of inhibition at 500 µg/mL: 34 mm
[6]; strain Sa_TPS 3103
  zone of inhibition at 500 µg/mL: 32 mm
[6]; strain Sa_TPS 3104
  zone of inhibition at 500 µg/mL: 32 mm
[6]; strain Sa_TPS 3106
  zone of inhibition at 500 µg/mL: 28 mm
[6]; strain Sa_TPS 3118
  zone of inhibition at 500 µg/mL: 28 mm
[6]; strain Sa_TPS 3133
  zone of inhibition at 500 µg/mL: 28 mm
[6]; strain Sa_TPS 3134
  zone of inhibition at 500 µg/mL: 26 mm
[6]; strain USFL 008
  zone of inhibition at 500 µg/mL: 26 mm
[6]; strain USFL 009
  zone of inhibition at 500 µg/mL: 28 mm
[6]; strain USFL 012
  zone of inhibition at 500 µg/mL: 28 mm
[6]; strain USFL 016
  zone of inhibition at 500 µg/mL: 32 mm
[6]; strain USFL 018
  zone of inhibition at 500 µg/mL: 30 mm
[6]; strain USFL 020
  zone of inhibition at 500 µg/mL: 30 mm
[6]; strain USFL 021
  zone of inhibition at 500 µg/mL: 29 mm
[6]; strain USFL 028
  zone of inhibition at 500 µg/mL: 28 mm
[6]; strain USFL 035
  zone of inhibition at 500 µg/mL: 28 mm
[6]; strain USFL 054
  zone of inhibition at 500 µg/mL: 28 mm
[6]; strain not given
  zone of inhibition at 500 µg/mL: 22 mm

— patent US20240246905A1 (University of Leicester, priority 2021, published 2024)
